Experimental data as given in patent US12091410B2, “Heterocyclic compound” (Takeda Pharmaceutical Company Limited, priority 2018, dated 2024).

molecular target: T1, human orexin type 2 receptor (Homo sapiens, UniProt O43614); test: Measurement of orexin type 2 receptor agonist activity (calcium fluorescence, Fluo-4 AM, CHO cells forcibly expressing human OX2 receptor); assay type: cell-based; details: test compound 3 μM, DMSO = 0%, orexin A (human) 10 nM = 100%
T1 construct: expressed in transfected cells
T1 sequence (O43614 1-444): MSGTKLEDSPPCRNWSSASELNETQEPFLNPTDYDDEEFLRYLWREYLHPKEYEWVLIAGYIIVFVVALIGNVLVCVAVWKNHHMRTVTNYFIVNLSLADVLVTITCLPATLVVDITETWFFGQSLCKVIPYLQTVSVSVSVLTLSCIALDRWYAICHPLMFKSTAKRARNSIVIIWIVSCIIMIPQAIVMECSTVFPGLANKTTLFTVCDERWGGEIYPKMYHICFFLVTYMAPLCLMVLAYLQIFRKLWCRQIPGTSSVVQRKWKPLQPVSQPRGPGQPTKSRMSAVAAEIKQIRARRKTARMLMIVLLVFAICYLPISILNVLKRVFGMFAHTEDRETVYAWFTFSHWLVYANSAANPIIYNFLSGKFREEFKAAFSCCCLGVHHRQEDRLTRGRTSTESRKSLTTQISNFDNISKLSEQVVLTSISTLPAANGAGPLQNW
From the text: To obtain a cell clone stably expressing human orexin type 2 receptor, human orexin type 2 receptor cDNA was inserted into pcDNA3.1(+) plasmid vector (Invitrogen), and a plasmid DNA for expression of human orexin type 2 receptor (pcDNA3.1(+)/hOX2R) was cloned. The plasmid DNA was introduced into CHO-dhfr cell by an electroporation method, and human orexin type 2 receptor expressing clone cells were obtained by limiting dilution method by using G418 drug resistance as a selection marker.
CHO cells forcibly expressing human OX2 receptor were seeded in each well of 384 well black transparent bottom plate (BD Falcon) at 7,500 cells/well, and cultured for one day in a 5% CO2 incubator at 37° C. After removal of the medium in the cell plate, assay buffer A containing a calcium indicator (HBSS (Thermo Fisher Scientific), 20 mM HEPES (Thermo Fisher Scientific), 0.1% BSA (Sigma-Aldrich), 2.5 μg/mL Fluo-4 AM (DOJINDO Chemical), 0.08% Pluronic F127 (DOJINDO Chemical), 1.25 mM probenecid (DOJINDO Chemical)) was added at 30 μL/well. The plate was stood for 30 min in a 5% CO2 incubator at 37° C., and further stood at room temperature for 30 min. A test compound prepared by diluting with assay buffer B (HBSS, 20 mM HEPES, 0.1% BSA) was added at 10 μL/well, and the fluorescence value was measured by FDSSpCELL (Hamamatsu Photonics K. K.) every one sec for 1 min, and thereafter every two sec for 1 min 40 sec. The activity (%) of the test compound was calculated assuming that variation in the fluorescence value when DMSO was added instead of the test compound was 0%, and variation in the fluorescence value when orexin A (human) (PEPTIDE INSTITUTE, INC.) was added at the final concentration of 10 nM was 100%.

Compared with `CCc1cc2n(n1)[C@@H](COC1CCN(c3ncccn3)CC1)[C@@H](NS(C)(=O)=O)CC2` (relative stereo) [Example 59, rel-N-[(6S,7R)-2-ethyl-7-({[1-(pyrimidin-2-yl)piperidin-4-yl]oxy}methyl)-4,5,6,7-tetrahydropyrazolo[1,5-a]pyridin-6-yl]methanesulfonamide], `CCc1nn2c(c1Cl)CC[C@H](NS(C)(=O)=O)[C@@H]2COC1CCN(c2ncccn2)CC1` (racemic) [Example 32, rac-N-[(6S,7R)-3-chloro-2-ethyl-7-({[1-(pyrimidin-2-yl)piperidin-4-yl]oxy}methyl)-4,5,6,7-tetrahydropyrazolo[1,5-a]pyridin-6-yl]methanesulfonamide] is lower in “OX2R agonist activity (3 μM, %)” value: 101% for the first, 92% for the second.

Going from `Cc1cc2n(n1)[C@@H](COC1CCN(c3ncc(F)cn3)CC1)[C@@H](NS(C)(=O)=O)CC2` (racemic) [Example 4, rac-N-[(6S,7R)-7-({[1-(5-fluoropyrimidin-2-yl)piperidin-4-yl]oxy}methyl)-2-methyl-4,5,6,7-tetrahydropyrazolo[1,5-a]pyridin-6-yl]methanesulfonamide] to `CCc1nn2c(c1Br)CC[C@H](NS(C)(=O)=O)[C@@H]2COC1CCN(c2ncc(F)cn2)CC1` (racemic) [Example 52, rac-N-[(6S,7R)-3-bromo-2-ethyl-7-({[1-(5-fluoropyrimidin-2-yl)piperidin-4-yl]oxy}methyl)-4,5,6,7-tetrahydropyrazolo[1,5-a]pyridin-6-yl]methanesulfonamide], the “OX2R agonist activity (3 μM, %)” value falls from 98% to 95%.

Compared with `CCc1cc2n(n1)[C@@H](COC1CCN(c3ncc(F)c(OC)n3)CC1)[C@@H](NS(C)(=O)=O)CC2` (racemic) [Example 40, rac-N-[(6S,7R)-2-ethyl-7-({[1-(5-fluoro-4-methoxypyrimidin-2-yl)piperidin-4-yl]oxy}methyl)-4,5,6,7-tetrahydropyrazolo[1,5-a]pyridin-6-yl]methanesulfonamide], `CC(C)n1cc2c(n1)[C@@H](COC1CCN(c3ncccn3)CC1)[C@@H](NS(C)(=O)=O)CC2` (racemic) [Example 47, rac-N-[(6S,7S)-2-(propan-2-yl)-7-({[1-(pyrimidin-2-yl)piperidin-4-yl]oxy}methyl)-4,5,6,7-tetrahydro-2H-indazol-6-yl]methanesulfonamide] is higher in “OX2R agonist activity (3 μM, %)” value: 96% for the first, 98% for the second.

First: CC(C)n1cc2c(n1)[C@@H](Cc1cccc(-c3ccccc3)c1)[C@@H](NS(C)(=O)=O)CC2 (racemic) [Example 16, rac-N-[(6S,7S)-7-[([1,1′-biphenyl]-3-yl)methyl]-2-(propan-2-yl)-4,5,6,7-tetrahydro-2H-indazol-6-yl]methanesulfonamide]
Second: Cc1cc2n(n1)[C@@H](Cc1cccc(-c3ccccc3)c1)[C@@H](NS(C)(=O)=O)CC2 (racemic) [Example 7, rac-N-{(6S,7S)-7-[([1,1′-biphenyl]-3-yl)methyl]-2-methyl-4,5,6,7-tetrahydropyrazolo[1,5-a]pyridin-6-yl}methanesulfonamide]
The “OX2R agonist activity (3 μM, %)” value of the first is higher: 84% for the first, 77% for the second.

Going from `Cc1cc2n(n1)C(CO[C@H]1CC[C@@H](c3ccccc3)CC1)C(NS(C)(=O)=O)CC2` (mixture of isomers) [Example 1, rac-N-[(6S,7R)-2-methyl-7-({[(1s,4S)-4-phenylcyclohexyl]oxy}methyl)-4,5,6,7-tetrahydropyrazolo[1,5-a]pyridin-6-yl]methanesulfonamide] to `Cc1cn2c(n1)C(COC1CCN(c3ncc(F)cn3)CC1)C(NC(=O)[C@@H]1CCCO1)CC2` (stereo in doubt) [Example 63, (2S)—N-[(7S*,8S*)-8-({[1-(5-fluoropyrimidin-2-yl)piperidin-4-yl]oxy}methyl)-2-methyl-5,6,7,8-tetrahydroimidazo[1,2-a]pyridin-7-yl]oxolane-2-carboxamide], the “OX2R agonist activity (3 μM, %)” value falls from 104% to 92%.
